In general, pIC50 refers to the IC50 on a negative log10 scale, so that one unit is a factor of ten.

pIC50: −log10 of the molar value. Where a name gives a salt, the structure may show the parent alone.

The target in data set [1] is NaV1.5 (Homo sapiens (Human), UniProt Q14524). The data set can be described thus: Sodium Influx Assay (Flux), NaV1.5. Conditions: read-out: Flux NaV1.5 IC50; Trex HEK293 cells, ANG2 dye; arithmetic mean.
Data set [2] deals with T1, NaV1.1 (Homo sapiens (Human), UniProt P35498). The data set can be described thus: Sodium Influx Assay (Flux), NaV1.1. In kind it is cell-based. The conditions noted are these: Trex HEK293 cells, ANG2 dye; arithmetic mean.
Data set [3] deals with T1, NaV1.1. The data set can be described thus: Electrophysiological Assay (EP), patch voltage clamp, NaV1.1. In kind it is cell-based. The conditions noted are these: HEK-293 cells, whole-cell patch clamp, inactivated state; arithmetic mean. The procedure: (§1) Sodium currents were measured using the patch clamp technique in the whole-cell configuration using either a PatchXpress automated voltage clamp or manually using an Axopatch 200B (Axon Instruments) or Model 2400 (A-M systems) amplifier.
In some studies, the external sodium was reduced by equimolar replacement with choline. […] All recordings were performed at ambient temperature in a bath chamber with a volume of 150 μL. Control sodium currents were measured in 0.5% DMSO. Controls and representative compounds of the invention were applied to the recording chamber through a 4-pinch or 8-pinch valve bath perfusion system manufactured by ALA Scientific Instruments.
Series resistance compensation was applied (60-80%). […] All statistics in this study are given as mean±SD.
The membrane potential was maintained at a voltage where inactivation of the channel is complete. The voltage is then stepped back to a very negative (Vhold=−150 mV) voltage for 20 ms and then a test pulse is applied to quantify the compound block. […] The percent decrease in sodium current following wash-on of compound was taken as the percent block of sodium channels.

Data set [4] deals with T2, NaV1.6 (Homo sapiens (Human), UniProt Q9UQD0). The data set can be described thus: Sodium Influx Assay (Flux), NaV1.6. The conditions noted are these: read-out: Flux NaV1.6 IC50; Trex HEK293 cells, ANG2 dye; arithmetic mean.
T2 sequence (Q9UQD0 whole entry): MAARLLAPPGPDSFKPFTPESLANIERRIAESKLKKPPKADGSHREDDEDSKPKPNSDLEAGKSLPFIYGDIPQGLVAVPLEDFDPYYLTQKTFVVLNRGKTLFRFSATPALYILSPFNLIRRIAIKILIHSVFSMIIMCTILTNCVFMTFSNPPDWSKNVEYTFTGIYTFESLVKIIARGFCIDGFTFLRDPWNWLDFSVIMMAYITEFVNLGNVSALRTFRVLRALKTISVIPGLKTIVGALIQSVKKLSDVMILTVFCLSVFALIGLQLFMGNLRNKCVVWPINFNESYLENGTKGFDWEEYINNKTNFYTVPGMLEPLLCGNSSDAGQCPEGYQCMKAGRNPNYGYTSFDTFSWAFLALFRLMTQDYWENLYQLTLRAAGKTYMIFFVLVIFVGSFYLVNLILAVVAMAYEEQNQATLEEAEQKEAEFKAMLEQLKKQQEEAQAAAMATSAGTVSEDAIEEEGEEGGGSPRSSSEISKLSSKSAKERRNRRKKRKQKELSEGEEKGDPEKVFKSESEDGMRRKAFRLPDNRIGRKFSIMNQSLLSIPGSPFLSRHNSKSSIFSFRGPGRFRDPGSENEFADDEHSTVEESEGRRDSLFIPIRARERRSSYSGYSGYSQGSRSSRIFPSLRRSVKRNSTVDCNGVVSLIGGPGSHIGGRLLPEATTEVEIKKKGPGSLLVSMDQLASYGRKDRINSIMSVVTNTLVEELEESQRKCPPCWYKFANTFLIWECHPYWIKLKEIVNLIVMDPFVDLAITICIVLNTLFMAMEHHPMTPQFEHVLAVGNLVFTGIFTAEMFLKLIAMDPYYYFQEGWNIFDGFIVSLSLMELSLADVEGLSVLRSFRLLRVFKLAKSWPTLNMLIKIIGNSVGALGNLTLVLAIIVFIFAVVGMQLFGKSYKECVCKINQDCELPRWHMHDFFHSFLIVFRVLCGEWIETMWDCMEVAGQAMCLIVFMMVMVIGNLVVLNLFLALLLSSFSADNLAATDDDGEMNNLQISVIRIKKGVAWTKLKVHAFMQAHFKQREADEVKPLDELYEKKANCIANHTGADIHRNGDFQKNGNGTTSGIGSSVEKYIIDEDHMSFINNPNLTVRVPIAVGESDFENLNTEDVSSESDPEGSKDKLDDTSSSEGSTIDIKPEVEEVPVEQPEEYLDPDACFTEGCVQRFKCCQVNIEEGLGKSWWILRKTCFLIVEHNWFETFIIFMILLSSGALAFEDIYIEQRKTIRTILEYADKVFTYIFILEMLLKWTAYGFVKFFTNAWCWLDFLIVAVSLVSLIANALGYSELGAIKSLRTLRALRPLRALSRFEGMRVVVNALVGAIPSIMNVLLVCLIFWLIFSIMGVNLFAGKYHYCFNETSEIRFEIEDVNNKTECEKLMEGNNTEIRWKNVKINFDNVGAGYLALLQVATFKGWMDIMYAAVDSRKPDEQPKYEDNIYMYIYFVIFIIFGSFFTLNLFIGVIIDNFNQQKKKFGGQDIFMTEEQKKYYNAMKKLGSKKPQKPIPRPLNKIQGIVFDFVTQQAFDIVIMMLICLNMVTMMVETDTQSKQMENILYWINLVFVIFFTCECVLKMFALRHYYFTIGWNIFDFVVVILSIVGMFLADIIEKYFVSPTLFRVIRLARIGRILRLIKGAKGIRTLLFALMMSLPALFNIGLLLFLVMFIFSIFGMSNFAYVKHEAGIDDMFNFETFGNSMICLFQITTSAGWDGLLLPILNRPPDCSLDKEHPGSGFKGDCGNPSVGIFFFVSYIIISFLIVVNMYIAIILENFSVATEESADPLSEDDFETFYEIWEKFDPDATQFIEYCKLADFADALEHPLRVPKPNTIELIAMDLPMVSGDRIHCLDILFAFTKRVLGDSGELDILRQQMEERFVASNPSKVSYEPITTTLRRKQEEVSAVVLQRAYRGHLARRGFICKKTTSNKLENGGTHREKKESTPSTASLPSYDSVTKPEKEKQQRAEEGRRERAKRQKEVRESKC
Data set [5] addresses T2, NaV1.6. The data set can be described thus: Electrophysiological Assay (EP), patch voltage clamp, NaV1.6. In kind it is cell-based. The conditions noted are these: HEK-293 cells, whole-cell patch clamp, inactivated state; arithmetic mean.
Description: Patch voltage clamp electrophysiology allows for the direct measurement and quantification of block of voltage-gated sodium channels (Nay's), and allows the determination of the time-and voltage-dependence of block which has been interpreted as differential binding to the resting, open, and inactivated states of the sodium channel (Hille, B., Journal of General Physiology (1977), 69: 497-515).
NaV1.1, NaV1.5 and NaV1.6 cDNAs (NM_001165964 (SCN1A), NM_000335 (SCN5A) and NM_014191 (SCN8A), respectively) were stably expressed in HEK-293 cells.
as §1
The manual voltage clamp protocol was as follows: Borosilicate glass micropipettes were fire-polished to a tip diameter yielding a resistance of 2-4 Mohms in the working solutions. […] In some studies, the external sodium was reduced by equimolar replacement with choline. Osmolarity in the CsF internal and NaCl external solutions was adjusted to 300 mOsm/kg and 310 mOsm/kg with glucose, respectively. All recordings were performed at ambient temperature in a bath chamber with a volume of 150 μL. Control sodium currents were measured in 0.5% DMSO. Controls and representative compounds of the invention were applied to the recording chamber through a 4-pinch or 8-pinch valve bath perfusion system manufactured by ALA Scientific Instruments.
Currents were recorded at 40 kHz sampling frequency, filtered at […], and stored using a Digidata-1322A analogue/digital interface with the pClamp software (Axon Instruments). Series resistance compensation was applied (60-80%). […] All statistics in this study are given as mean±SD.
The membrane potential was maintained at a voltage where inactivation of the channel is complete. The voltage is then stepped back to a very negative (Vhold=−150 mV) voltage for 20 ms and then a test pulse is applied to quantify the compound block. The 20 ms brief repolarization was long enough for compound-free channels to completely recover from fast inactivation, but the compound-bound channels recovered more slowly such that negligible recovery could occur during this interval. The percent decrease in sodium current following wash-on of compound was taken as the percent block of sodium channels.

Sequence of NaV1.5 (Q14524 other isoform, or with tags, fused parts or gaps): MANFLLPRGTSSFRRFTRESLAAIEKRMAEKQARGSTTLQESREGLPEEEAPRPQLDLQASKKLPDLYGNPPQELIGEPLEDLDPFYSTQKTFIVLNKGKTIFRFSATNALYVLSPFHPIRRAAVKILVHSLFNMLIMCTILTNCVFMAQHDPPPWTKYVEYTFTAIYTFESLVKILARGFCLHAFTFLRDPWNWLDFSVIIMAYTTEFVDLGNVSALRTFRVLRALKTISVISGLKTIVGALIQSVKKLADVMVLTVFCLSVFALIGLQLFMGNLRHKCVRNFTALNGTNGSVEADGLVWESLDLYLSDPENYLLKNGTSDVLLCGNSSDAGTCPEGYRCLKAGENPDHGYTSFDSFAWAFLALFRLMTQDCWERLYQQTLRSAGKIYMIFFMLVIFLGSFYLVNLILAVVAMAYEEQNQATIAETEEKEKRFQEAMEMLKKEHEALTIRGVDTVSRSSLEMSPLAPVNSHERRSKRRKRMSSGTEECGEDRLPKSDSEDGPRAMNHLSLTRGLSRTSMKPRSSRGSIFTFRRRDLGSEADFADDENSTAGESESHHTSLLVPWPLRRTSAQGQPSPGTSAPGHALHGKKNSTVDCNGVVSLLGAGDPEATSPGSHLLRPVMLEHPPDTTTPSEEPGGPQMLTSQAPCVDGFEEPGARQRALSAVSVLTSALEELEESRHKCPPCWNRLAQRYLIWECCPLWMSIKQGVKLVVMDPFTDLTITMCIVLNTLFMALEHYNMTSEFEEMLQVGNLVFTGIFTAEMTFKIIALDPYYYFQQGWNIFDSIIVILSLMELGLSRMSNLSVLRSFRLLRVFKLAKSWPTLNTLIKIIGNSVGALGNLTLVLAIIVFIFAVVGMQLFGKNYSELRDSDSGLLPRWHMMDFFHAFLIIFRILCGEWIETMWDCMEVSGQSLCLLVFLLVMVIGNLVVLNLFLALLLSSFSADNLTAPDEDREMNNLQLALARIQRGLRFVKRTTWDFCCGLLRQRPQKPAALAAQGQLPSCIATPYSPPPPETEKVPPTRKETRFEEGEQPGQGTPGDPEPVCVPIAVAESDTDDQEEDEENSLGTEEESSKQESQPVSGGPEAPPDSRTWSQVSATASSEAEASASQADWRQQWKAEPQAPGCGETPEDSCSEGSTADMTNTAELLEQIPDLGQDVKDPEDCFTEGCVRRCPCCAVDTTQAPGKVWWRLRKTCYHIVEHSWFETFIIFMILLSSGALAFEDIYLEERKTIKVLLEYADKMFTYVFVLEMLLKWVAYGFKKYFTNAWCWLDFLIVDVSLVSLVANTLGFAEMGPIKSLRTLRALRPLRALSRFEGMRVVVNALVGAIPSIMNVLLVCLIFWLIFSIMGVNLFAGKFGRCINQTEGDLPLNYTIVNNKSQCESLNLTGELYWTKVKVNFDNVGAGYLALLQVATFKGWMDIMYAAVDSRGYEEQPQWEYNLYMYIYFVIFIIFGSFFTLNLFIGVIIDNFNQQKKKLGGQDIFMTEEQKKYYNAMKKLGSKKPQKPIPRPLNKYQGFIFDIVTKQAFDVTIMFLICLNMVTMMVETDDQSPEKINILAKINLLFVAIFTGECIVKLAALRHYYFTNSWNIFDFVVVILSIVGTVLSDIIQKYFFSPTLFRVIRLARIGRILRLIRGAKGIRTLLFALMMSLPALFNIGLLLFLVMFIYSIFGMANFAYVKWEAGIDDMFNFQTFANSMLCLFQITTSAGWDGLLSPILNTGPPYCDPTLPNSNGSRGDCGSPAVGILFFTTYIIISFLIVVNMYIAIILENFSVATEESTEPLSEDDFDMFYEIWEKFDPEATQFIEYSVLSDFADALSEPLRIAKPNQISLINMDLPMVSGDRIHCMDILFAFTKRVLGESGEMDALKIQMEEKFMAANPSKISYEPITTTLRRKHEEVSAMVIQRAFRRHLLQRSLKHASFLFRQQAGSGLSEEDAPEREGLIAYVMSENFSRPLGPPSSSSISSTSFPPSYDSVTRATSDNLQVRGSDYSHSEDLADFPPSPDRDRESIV

For the molecule `CN(c1ccc(S(=O)(=O)Nc2ncns2)cc1Cl)[C@@H]1CCN(Cc2ccccc2)C1` [Example 68, (R)-4-((1-benzylpyrrolidin-3-yl)(methyl)amino)-3-chloro-N-(1,2,4-thiadiazol-5-yl)benzenesulfonamide 2,2,2-trifluoroacetate], the pIC50 in data set [1] was less than 4.52; in data set [2] it was less than 4.52; in data set [3], less than 5.00; in data set [4], 5.85; in data set [5], 5.53.

For the molecule `O=S(=O)(Nc1nccs1)c1ccc(N[C@@H]2CCN(Cc3ccccc3)C2)c(Cl)c1` [Example 79, (R)-4-(1-benzylpyrrolidin-3-ylamino)-3-chloro-N-(thiazol-2-yl)benzenesulfonamide], the pIC50 is less than 4.52 in data set [1]; 5.20 in data set [2]; less than 5.00 in data set [3]; 6.24 in data set [4]; 6.86 in data set [5].

Consider `CN(c1ccc(S(=O)(=O)Nc2nccs2)cc1Cl)[C@H]1CCN(Cc2ccccc2)C1` [Example 80, (S)-4-((1-benzylpyrrolidin-3-yl)(methyl)amino)-3-chloro-N-(thiazol-2-yl)benzenesulfonamide], for which the pIC50 in data set [1] was 4.54; in data set [2], 4.91; in data set [3], less than 5.00; in data set [4] it was 6.42; in data set [5] it was 6.91.

On to `Cc1cccc(CN2CCC(Oc3ccc(S(=O)(=O)Nc4nccs4)cc3Cl)CC2)n1` [Example 82, 3-chloro-4-(1-((6-methylpyridin-2-yl)methyl)piperidin-4-yloxy)-N-(thiazol-2-yl)benzenesulfonamide], for which the pIC50 in data set [1] is less than 4.52; in data set [2], less than 4.52; in data set [3] it was less than 5.00; in data set [4] it was 6.37; in data set [5], 7.25.

For `Cc1cccc(CN2CC[C@H](N(C)c3ccc(S(=O)(=O)Nc4ncns4)cc3Cl)C2)c1` [Example 83, (S)-3-chloro-4-(methyl(1-(3-methylbenzyl)pyrrolidin-3-yl)amino)-N-(1,2,4-thiadiazol-5-yl)benzenesulfonamide], the pIC50 in data set [1] was less than 4.52; in data set [2], less than 4.52; in data set [3], less than 5.00; in data set [4] it was 7.54; in data set [5] it was 7.44.

As for `O=S(=O)(Nc1nccs1)c1cc(Cl)c(N[C@H]2CCN(Cc3ccccc3)C2)cc1F` [Example 87, (S)-4-(1-benzylpyrrolidin-3-ylamino)-5-chloro-2-fluoro-N-(thiazol-2-yl)benzenesulfonamide], the pIC50 is 4.85 in data set [1]; 5.22 in data set [2]; 5.14 in data set [3]; 6.13 in data set [4]; 6.41 in data set [5].

In the case of `Cc1cccc(CN2CC[C@@H](Nc3cc(F)c(S(=O)(=O)Nc4nccs4)cc3Cl)C2)c1` [Example 88, (R)-5-chloro-2-fluoro-4-(1-(3-methylbenzyl)pyrrolidin-3-ylamino)-N-(thiazol-2-yl)benzenesulfonamide], the pIC50 in data set [1] is 5.23; in data set [2] it was 5.80; in data set [3], 5.90; in data set [4], 6.42; in data set [5], 7.41.

Consider `O=S(=O)(Nc1nccs1)c1cc(Cl)c(N[C@@H]2CCN(Cc3ccccc3)C2)cc1F` [Example 89, (R)-4-(1-benzylpyrrolidin-3-ylamino)-5-chloro-2-fluoro-N-(thiazol-2-yl)benzenesulfonamide], for which the pIC50 is 4.92 in data set [1]; 5.67 in data set [2]; 5.54 in data set [3]; 6.30 in data set [4]; 7.04 in data set [5].

As to `Cc1cccc(CN2CCC(Oc3ccc(S(=O)(=O)Nc4nccs4)cc3Cl)CC2)c1` [Example 92, 3-chloro-4-(1-(3-methylbenzyl)piperidin-4-yloxy)-N-(thiazol-2-yl)benzenesulfonamide], the pIC50 is 5.44 in data set [1]; 5.19 in data set [2]; 5.12 in data set [3]; 6.69 in data set [4]; 7.09 in data set [5].

In the case of `O=S(=O)(Nc1ncns1)c1ccc(OC2CCN(Cc3ccccc3)CC2)c(Cl)c1` [Example 100, 4-(1-benzylpiperidin-4-yloxy)-3-chloro-N-(1,2,4-thiadiazol-5-yl)benzenesulfonamide 2,2,2-trifluoroacetate], the pIC50 is less than 4.52 in data set [1]; 4.52 in data set [2]; less than 5.00 in data set [3]; 6.72 in data set [4]; 6.79 in data set [5].

As to `CN(c1cc(F)c(S(=O)(=O)Nc2cscn2)c(F)c1Cl)[C@H]1CCN(Cc2ccccc2)C1` [Example 102, (S)-4-((1-benzylpyrrolidin-3-yl)(methyl)amino)-3-chloro-2,6-difluoro-N-(thiazol-4-yl)benzenesulfonamide formate], the pIC50 was less than 4.52 in data set [1]; less than 4.52 in data set [2]; less than 5.00 in data set [3]; 6.15 in data set [4]; 6.82 in data set [5].

Consider `Cc1cccc(CN2CC[C@H](N(C)c3cc(F)c(S(=O)(=O)Nc4cscn4)c(F)c3C)C2)n1` [Example 104, (S)-2,6-difluoro-3-methyl-4-(methyl(1-((6-methylpyridin-2-yl)methyl)pyrrolidin-3-yl)amino)-N-(thiazol-4-yl)benzenesulfonamide formate], for which the pIC50 in data set [1] is less than 4.52; in data set [2], less than 4.52; in data set [3] it was less than 5.00; in data set [4] it was 7.59; in data set [5] it was 7.96.

`O=S(=O)(Nc1cscn1)c1c(F)cc(OC2CCN(Cc3ccccc3)CC2)c(Cl)c1F` [Example 105, 4-((1-benzylpiperidin-4-yl)oxy)-3-chloro-2,6-difluoro-N-(thiazol-4-yl)benzenesulfonamide formate]: the pIC50 is 4.76 in data set [1]; 4.56 in data set [2]; less than 5.00 in data set [3]; 6.57 in data set [4]; 6.82 in data set [5].

As to `Cc1c(OC2CCN(Cc3ccccc3)CC2)cc(F)c(S(=O)(=O)Nc2cscn2)c1F` [Example 106, 4-((1-benzylpiperidin-4-yl)oxy)-2,6-difluoro-3-methyl-N-(thiazol-4-yl)benzenesulfonamide formate], the negative-log IC50 (pIC50) in data set [1] is 4.69; in data set [2], 4.63; in data set [3], less than 5.00; in data set [4] it was 7.00; in data set [5], 7.47.

As for `Cc1cccc(CN2CC[C@H](N(C)c3cc(F)c(S(=O)(=O)Nc4cscn4)cc3Cl)C2)n1` [Example 192, (S)-5-chloro-2-fluoro-4-(methyl(1-((6-methylpyridin-2-yl)methyl)pyrrolidin-3-yl)amino)-N-(thiazol-4-yl)benzene-sulfonamide], the negative logarithm of the IC50 (pIC50) in data set [1] is less than 4.52; in data set [2], less than 4.52; in data set [3], less than 5.00; in data set [4], 6.07; in data set [5] it was 6.43.

As to `CN(c1cc(F)c(S(=O)(=O)Nc2cscn2)cc1Cl)[C@H]1CCN(Cc2cccc(C(F)F)c2)C1` [Example 193, (S)-5-chloro-4-((1-(3-(difluoromethyl)benzyl)-pyrrolidin-3-yl)(methyl)amino)-2-fluoro-N-(thiazol-4-yl)benzene-sulfonamide], the pIC50 in data set [1] is 5.04; in data set [2] it was 5.45; in data set [3], less than 5.00; in data set [4], 6.11; in data set [5] it was 6.48.

For the origin of these results see US10246453B2, “Benzenesulfonamide compounds and their use as therapeutic agents” (Xenon Pharmaceuticals Inc., priority 2016, dated 2019).
